Tests used:
[1] = biological target: T1, h-GABAA α2β2γ1 (Homo sapiens, UniProt P47869+Q8N1C3); test: Two-electrode voltage clamp electrophysiology in Xenopus oocytes, modulation of GABA EC20 current; type: cell-based; design: host or cells: Xenopus laevis oocytes, RNA micro-injection; settings: Table 2; for Efficacy (GABA)%: % modulation of GABA EC20 = 100*(Fold increase−1), compound at approx. 30-fold Ki; for Fold increase h-GABA-A α2β2γ1 oocyte @ 30-fold Ki: compound at approx. 30-fold its Ki α2β2γ1, GABA EC20, Xenopus oocytes
T1 sequence (P47869 29-451): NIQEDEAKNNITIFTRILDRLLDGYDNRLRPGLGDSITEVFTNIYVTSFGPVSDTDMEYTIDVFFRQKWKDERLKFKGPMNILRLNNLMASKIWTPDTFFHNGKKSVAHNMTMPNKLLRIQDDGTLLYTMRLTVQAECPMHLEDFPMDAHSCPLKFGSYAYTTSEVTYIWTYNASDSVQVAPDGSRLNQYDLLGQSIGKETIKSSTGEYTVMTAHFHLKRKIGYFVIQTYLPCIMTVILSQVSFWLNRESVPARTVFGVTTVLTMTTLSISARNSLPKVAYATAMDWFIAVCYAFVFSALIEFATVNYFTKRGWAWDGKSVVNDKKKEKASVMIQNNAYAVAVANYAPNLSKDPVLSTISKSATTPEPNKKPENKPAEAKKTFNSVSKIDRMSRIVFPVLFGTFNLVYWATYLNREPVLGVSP
T1 sequence (P47870 25-512 partner limits assumed): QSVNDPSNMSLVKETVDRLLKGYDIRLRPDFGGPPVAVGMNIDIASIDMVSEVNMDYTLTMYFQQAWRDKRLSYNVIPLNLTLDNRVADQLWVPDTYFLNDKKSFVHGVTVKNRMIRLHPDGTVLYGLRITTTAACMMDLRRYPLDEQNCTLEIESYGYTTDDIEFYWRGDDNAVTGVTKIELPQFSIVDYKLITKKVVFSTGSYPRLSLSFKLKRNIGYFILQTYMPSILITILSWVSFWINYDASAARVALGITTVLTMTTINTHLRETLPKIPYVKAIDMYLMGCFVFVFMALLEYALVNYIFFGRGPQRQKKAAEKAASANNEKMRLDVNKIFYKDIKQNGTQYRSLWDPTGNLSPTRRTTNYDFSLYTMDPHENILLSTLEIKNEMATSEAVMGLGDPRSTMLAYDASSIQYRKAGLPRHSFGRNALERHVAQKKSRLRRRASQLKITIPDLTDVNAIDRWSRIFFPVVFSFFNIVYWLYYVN
T1 sequence (Q8N1C3 36-465): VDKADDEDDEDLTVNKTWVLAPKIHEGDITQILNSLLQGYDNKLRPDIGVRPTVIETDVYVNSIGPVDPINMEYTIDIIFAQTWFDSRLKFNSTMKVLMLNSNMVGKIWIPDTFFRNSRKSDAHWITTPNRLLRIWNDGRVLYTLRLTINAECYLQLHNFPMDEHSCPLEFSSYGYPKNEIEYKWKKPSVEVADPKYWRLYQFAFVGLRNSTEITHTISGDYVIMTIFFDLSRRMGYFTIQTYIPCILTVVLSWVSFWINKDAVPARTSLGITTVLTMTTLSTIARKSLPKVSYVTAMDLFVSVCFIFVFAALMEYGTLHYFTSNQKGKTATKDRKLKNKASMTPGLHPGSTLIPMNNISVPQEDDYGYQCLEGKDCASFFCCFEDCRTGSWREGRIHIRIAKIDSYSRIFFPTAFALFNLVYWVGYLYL
Description: Xenopus laevis oocytes at maturation stages V-VJ were used for the expression of cloned mRNA encoding GABAA receptor subunits. Oocytes ready for RNA micro-injection were bought from Ecocyte, Castrop-Rauxel, Germany and stored in modified Barth's medium (composition in mM: NaCl 88, KCl 1, NaHCO3 2.4, HEPES 10, MgSO4 0.82, CaNO3 0.33, CaCl2 0.33, pH=7.5) at 20° C. until the experiment.
Oocytes were plated in 96-well plates for microinjection using the Roboinject automated instrument (MultiChannelSystems, Reutlingen, Germany). Approximately 50 nL of an aqueous solution containing the RNA transcripts for the subunits of the desired GABAA receptor subtype was injected into each oocyte. […] Oocytes were kept in modified Barth's medium (composition in mM: NaCl 88, KCl 1, NaHCO3 […], HEPES 10, MgSO4 0.82, CaNO3 0.33, CaCl2 0.33, pH=7.5) at 20° C. until the experiment.
Electrophysiological experiments were performed using the Roboocyte instrument (MultiChannelSystems, Reutlingen, Germany) on days 3 to 5 after the micro-injection of mRNA. During the experiment the oocytes were constantly superfused by a solution containing (in mM) NaCl 90, KCl 1, HEPES 5, MgCl2 1, CaCl2 1 (pH 7.4). Oocytes were impaled by two glass microelectrodes (resistance: 0.5-0.8 MΩ) which were filled with a solution containing KCl 1M+K-acetate 1.5 M and voltage-clamped to −80 mV. The recordings were performed at room temperature using the Roboocyte two-electrode voltage clamp system (Multichannelsystem). After an initial equilibration period of 1.5 min GABA was added for 1.5 min at a concentration evoking approximately 20% of a maximal current response (EC20). After another rest interval of 2.5 min GABA was again added evoking a response of similar amplitude and shape. […] Current traces were recorded at a digitization rate of 10 Hz during and shortly before and after the GABA application.
Each compound and concentration was tested on at least 3 oocytes. Different oocytes were used for different compound concentrations.
For the analysis, the digitized current traces of the first and second GABA response were superimposed and, if necessary, rescaled to equal maximal amplitudes. The ratio between the two responses during the time interval of test compound application was calculated point by point. The extremum of the resulting “ratio trace” was taken as the efficacy (“Fold increase”) of the compound expressed as “% modulation of GABA EC20” (100*(Fold increase−1)).

[2] = biological target: T2, h-GABAA α1β3γ2 (Homo sapiens, UniProt P14867+P18507); test: Radioligand binding assay, [3H]Flumazenil competition, HEK293F membranes; settings: for γ2/γ1 Selectivity Ratio: Ki α1β3γ2 (nM)/Ki α2β2γ1 (nM); for LogSel: Log[Ki α1β3γ2 (nM)/Ki α2β2γ1 (nM)]
T2 construct: expressed in transfected cells; host or cells: HEK293F cells, membranes
Description: The affinity of compounds at GABAA γ2 subunit-containing receptors was measured by competition for [^3H]Flumazenil (81.1 Ci/mmol; Roche) binding to HEK293F cells expressing human (transiently transfected) receptors of composition α1β3γ2.
Harvested pellets from HEK293F cells expressing the different GABAA γ2 receptor subtypes were resuspended in Mannitol Buffer pH 7.2-7.4 and processed as described above for the cells expressing the GABAA γ1 subunit-containing receptors.
Assays were incubated to equilibrium for 1 hour at 4° C. and harvested onto GF/C uni-filters (Packard) by filtration using a Packard harvester and washing with ice-cold wash buffer (50 mM Tris; pH 7.5). After drying, filter-retained radioactivity was detected by liquid scintillation counting. Ki values were calculated using Excel-Fit (Microsoft) and are the means of two determinations.

Row | Compound | Efficacy (GABA)% [1] | Fold increase h-GABA-A α2β2γ1 oocyte @ 30-fold Ki [1] | Ki [2] | γ2/γ1 Selectivity Ratio ([2]; Table 1) | LogSel ([2]; Table 1) | γ2/γ1 Selectivity Ratio ([2]; Table 3) | LogSel ([2]; Table 3)
1 | Cc1nnc2n1-c1ccc(Br)c(Cl)c1C(c1c(F)cccc1F)=NC2 [Example 1, 8-bromo-7-chloro-6-(2,6-difluorophenyl)-1-methyl-4H-[1,2,4]triazolo[4,3-a][1,4]benzodiazepine] | 77% | 1.77 | 146 nM | 18.3 | 1.26 | 18.3 | 1.3
2 | Fc1ccccc1C1=NCc2nnc(C3CC3)n2-c2ccc(Br)c(Cl)c21 [Example 2, 8-bromo-7-chloro-1-cyclopropyl-6-(2-fluorophenyl)-4H-[1,2,4]triazolo[4,3-a][1,4]benzodiazepine] | 84% | 1.84 | 486 nM | 10.1 | 1.01 | – | –
3 | Fc1ccccc1C1=NCc2nnc(-c3cccnn3)n2-c2ccc(Br)c(Cl)c21 [Example 3, 8-bromo-7-chloro-6-(2-fluorophenyl)-1-pyridazin-3-yl-4H-[1,2,4]triazolo[4,3-a][1,4]benzodiazepine] | 113% | 2.13 | 453 nM | 51.2 | 1.71 | – | –
4 | Cc1nnc2n1-c1ccc(Cl)c(Cl)c1C(c1ccccc1F)=NC2 [Example 4, 7,8-dichloro-6-(2-fluorophenyl)-1-methyl-4H-[1,2,4]triazolo[4,3-a][1,4]benzodiazepine] | 73% | 1.73 | 795 nM | 12.1 | 1.08 | – | –
5 | Cc1nnc2n1-c1ccc(Cl)c(Cl)c1C(c1c(F)cccc1F)=NC2 [Example 5, 7,8-dichloro-6-(2,6-difluorophenyl)-1-methyl-4H-[1,2,4]triazolo[4,3-a][1,4]benzodiazepine] | 57% | 1.57 | 137 nM | 20.8 | 1.32 | – | –
6 | Cc1nnc2n1-c1ccc(C3CC3)c(Cl)c1C(c1c(F)cccc1F)=NC2 [Example 6, 7-chloro-8-cyclopropyl-6-(2,6-difluorophenyl)-1-methyl-4H-[1,2,4]triazolo[4,3-a][1,4]benzodiazepine] | 106% | 2.06 | 965 nM | 10.3 | 1.01 | – | –
7 | Fc1cccc(F)c1C1=NCc2nncn2-c2ccc(Br)c(Cl)c21 [Example 7, 8-bromo-7-chloro-6-(2,6-difluorophenyl)-4H-[1,2,4]triazolo[4,3-a][1,4]benzodiazepine] | 56% | 1.56 | 205 nM | 24.2 | 1.38 | – | –
8 | Fc1ccccc1C1=NCc2nncn2-c2ccc(Br)c(Cl)c21 [Example 8, 8-bromo-7-chloro-6-(2-fluorophenyl)-4H-[1,2,4]triazolo[4,3-a][1,4]benzodiazepine] | 58% | 1.58 | 576 nM | 12.1 | 1.08 | – | –
9 | O=c1[nH]nc2n1-c1ccc(Cl)c(Cl)c1C(c1c(F)cccc1F)=NC2 [Example 9, 7,8-dichloro-6-(2,6-difluorophenyl)-2,4-dihydro-[1,2,4]triazolo[4,3-a][1,4]benzodiazepin-1-one] | 72% | 1.72 | 396 nM | 49.7 | 1.70 | – | –
10 | Fc1ccccc1C1=NCc2nnc(-c3cccnn3)n2-c2ccc(Cl)c(Cl)c21 [Example 10, 7,8-dichloro-6-(2-fluorophenyl)-1-pyridazin-3-yl-4H-[1,2,4]triazolo[4,3-a][1,4]benzodiazepine] | 69% | 1.69 | 645 nM | 67.7 | 1.83 | – | –
11 | Fc1cccc(F)c1C1=NCc2nnc(C3CCOCC3)n2-c2ccc(Cl)c(Cl)c21 [Example 11, 7,8-dichloro-6-(2,6-difluorophenyl)-1-tetrahydropyran-4-yl-4H-[1,2,4]triazolo[4,3-a][1,4]benzodiazepine] | 60% | 1.60 | 690 nM | 14.1 | 1.15 | – | –
12 | Fc1cccc(F)c1C1=NCc2nnc(-c3ccncn3)n2-c2ccc(Cl)c(Cl)c21 [Example 12, 7,8-dichloro-6-(2,6-difluorophenyl)-1-pyrimidin-4-yl-4H-[1,2,4]triazolo[4,3-a][1,4]benzodiazepine] | 49% | 1.49 | 490 nM | 47.3 | 1.67 | – | –
13 | O=c1[nH]nc2n1-c1ccc(Br)c(Cl)c1C(c1c(F)cccc1F)=NC2 [Example 13, 8-bromo-7-chloro-6-(2,6-difluorophenyl)-2,4-dihydro-[1,2,4]triazolo[4,3-a][1,4]benzodiazepin-1-one] | 52% | 1.52 | 331 nM | 53.5 | 1.73 | – | –
